# Experimental data taken from patent US4259235A, “Tricyclic nitrogenous compounds having string plant growth regulating properties” (BASF Aktiengesellschaft, priority 1977, dated 1981).
# Where two headings read alike, the source gives them in different places.
# Columns and labels:
# [1] = system: Cynodon dactylon; experiment: Shoot growth, postemergence treatment in the greenhouse (table 26); format: in vivo; details: from seed
# Method: (§1) Plastic flowerpots having a volume of 300 cm^3 were filled with a sandy loam and the test plants placed therein (either as seed, as vegetatively reproduced species, or as potted plants, e.g., vines). For preemergence treatment, the active ingredients were suspended or emulsified in water as vehicle and sprayed onto the surface of the soil immediately after sowing by means of finely distributing nozzles. The potted vines were treated by spraying them with the correspondingly diluted liquor. For postemergence treatment, the agents were, as stated above, sprayed in water onto the leaves of the test plants, some liquor also falling onto the soil. In some special cases, solid active ingredients were first dissolved in dimethylformamide and then applied in a total liquor amount of 400 liters of water per hectare. For the postemergence treatment, the plants were first grown to a height of from 3 to 10 cm before being treated. With grasses, the first growth was cut, and the new growth treated 2 to 3 days after cutting. The temperature requirements of the plants were taken into account by placing them in cooler or warmer sections of the greenhouse. The experiments were run for from 4 to 6 weeks, during which time the plants were tended and their reaction to the various treatments was assessed.
# (§2) The application rates are given in kg/ha of active ingredient, regardless of the method of application and the amount of water used.
# (§3) A 0 to 100 scale was used for the evaluation, 0 denoting normal emergence or no damage (or no inhibition), and 100 denoting non-emergence or complete destruction of the plants. A distinction should be made in the influence on growth between desired changes without any appreciable disadvantageous phytotoxic effects (e.g., purely growth-regulating effects) and those of a phytotoxic herbicical character.
# [2] = system: Hordeum vulgare; experiment: as above; format: in vivo
# Method: as §1, §2, §3
# [3] = system: Poa pratensis; experiment: as above; format: in vivo
# Method: as §1, §2, §3
# [4] = system: Ipom. spp.; experiment: Herbicidal action, pre- and postemergence application in the greenhouse; format: in vivo, Ipomoea spp.; details: Ipomoea, post-emergence; 3.0 kg/ha POST; read-out: % damage
# Method: as §1, §2, §3
# [5] = system: Mentha piper.; experiment: as above; format: in vivo; details: post-emergence; 3.0 kg/ha POST; read-out: % damage
# Method: as §1, §2, §3
# [6] = system: Sinapis alba; experiment: as above; format: in vivo; details: post-emergence, 3.0 kg/ha PRE, read-out: % damage
# Method: as §1, §2, §3
# [7] = system: Lolium mult.; experiment: as above; format: in vivo; details: for pest or weed control at 3000 g/ha: Lolium, post-emergence, read-out: % damage
# Method: as §1, §2, §3
# [8] = system: Viola tric.; experiment: as above; format: in vivo; details: 3.0 kg/ha POST
# Method: as §1, §2, §3
# [9] = system: Cynodon dact. (seed); experiment: as above; format: in vivo, Cynodon dactylon
# Method: as §1, §2, §3
# [10] = system: Euph. gen.; experiment: as above; format: in vivo, Euphorbia geniculata
# Method: as §1, §2, §3
# [11] = system: Galium apar.; experiment: as above; format: in vivo, Galium aparine; details: post-emergence, 3.0 kg/ha POST, read-out: % damage
# Method: as §1, §2, §3
# [12] = system: Euphorbia geniculata; experiment: Shoot growth, postemergence treatment in the greenhouse (table 26); format: in vivo
# Method: as §1, §2, §3
# [13] = system: Tritic. aestiv.; experiment: Shoot inhibition, pre- and postemergence treatment (table 28); format: in vivo; details: post-emergence
# Method: as §1, §2, §3
# [14] = system: Glycine max; experiment: as above; format: in vivo; details: post-emergence, read-out: % shoot inhibition
# Method: as §1, §2, §3
# [15] = system: Poa prat.; experiment: as above; format: in vivo; details: Poa pratensis, post-emergence, read-out: % shoot inhibition
# Method: as §1, §2, §3
# [16] = system: Euphorbia genic.; experiment: as above; format: in vivo, Euphorbia geniculata; details: post-emergence, read-out: % shoot inhibition
# Method: as §1, §2, §3
# [17] = system: Poa pratensis; experiment: Growth inhibition in lawns, preemergence treatment in the greenhouse; format: in vivo; details: Poa pratensis, pre-emergence, read-out: % growth inhibition after emergence
# Method: as §1, §2, §3
# [18] = system: Cynodon dactyl.; experiment: Shoot inhibition, pre- and postemergence treatment (table 28); format: in vivo, Cynodon dactylon; details: post-emergence, read-out: % shoot inhibition
# Method: as §1, §2, §3
# [19] = system: Hordeum vulg.; experiment: as above; format: in vivo, Hordeum vulgare; details: post-emergence
# Method: as §1, §2, §3
# [20] = system: Arachys hypog.; experiment: as above; format: in vivo, Arachys hypogaea; details: post-emergence, read-out: % shoot inhibition
# Method: as §1, §2, §3
# [21] = system: Medicago sativa; experiment: Inhibition of shoot growth by growth regulators, pre- and postemergence (table 27); format: in vivo; details: post-emergence, read-out: shoot growth inhibition (%)
# Method: as §1, §2, §3
# [22] = system: Euphorbia geniculata; experiment: as above; format: in vivo; details: Euphorbia heterophylla, post-emergence, read-out: shoot growth inhibition (%)
# Method: as §1, §2, §3
# [23] = read-out: % shoot inhibition, 1.0 kg/ha POST
# [24] = read-out: % shoot inhibition, 1.0 kg/ha PRE
# [25] = read-out: % shoot inhibition, 2.0 kg/ha POST
# [26] = read-out: % shoot inhibition, 2.0 kg/ha PRE
compound,measurement,setting,value
OC1C2CC(C3N=NC23)C1Nc1ccc(Cl)cc1 (stereo not drawn),Shoot length,[1]; 1.0 kg/ha,6 cm
same,Shoot length,[1]; 2.0 kg/ha,6 cm
same,Shoot length,[2]; 0.5 kg/ha,16 cm
same,Shoot length,[2]; 1.0 kg/ha,15 cm
same,Shoot length,[2]; 2.0 kg/ha,14 cm
same,Shoot length,[3]; 1.0 kg/ha,13 cm
same,Shoot length,[3]; 2.0 kg/ha,13 cm
OC1C(O)C2CC1C1N=NC21 (stereo not drawn),pest or weed control at 3000 g/ha,[4],100%
same,pest or weed control at 3000 g/ha,[5],100%
same,pest or weed control at 3000 g/ha,[6],80%
same,pest or weed control at 3000 g/ha,[7]; 3.0 kg/ha POST,95%
same,pest or weed control at 3000 g/ha,[7]; 3.0 kg/ha PRE,90%
same,% damage,[8],95%
ClC1C(Cl)C2CC1C1N=NC21 (stereo not drawn),% damage,[9]; 1.0 kg/ha PRE,90%
same,% damage,[9]; 2.0 kg/ha POST,100%
same,% damage,[7]; 3.0 kg/ha POST,100%
same,pest or weed control at 3000 g/ha,[7],100%
same,% damage,[10]; 1.0 kg/ha PRE,70%
same,% damage,[10]; 2.0 kg/ha POST,95%
Cc1ccc(NC2C(Br)C3CC2C2N=NC32)cc1 (stereo not drawn),pest or weed control at 3000 g/ha,[11],80%
same,pest or weed control at 3000 g/ha,[4],100%
same,% damage,"[9]; appln. rate 2 kg/ha, POST line",100%
same,pest or weed control at 3000 g/ha,[5],100%
same,pest or weed control at 3000 g/ha,[6],100%
same,pest or weed control at 3000 g/ha,[7]; 3.0 kg/ha POST,100%
same,pest or weed control at 3000 g/ha,[7]; 3.0 kg/ha PRE,95%
"C[N+](C)(C)CCCl [[ClCH2CH2N(C⊕H3)3]⊖ Cl, reference compound]",Shoot length,[1]; 1.0 kg/ha,7 cm
same,Shoot length,[1]; 2.0 kg/ha,7 cm
same,Shoot length,[2]; 0.5 kg/ha,14 cm
same,Shoot length,[2]; 1.0 kg/ha,14 cm
same,Shoot length,[2]; 2.0 kg/ha,14 cm
same,Shoot length,[12]; 0.5 kg/ha,12.5 cm
same,Shoot length,[12]; 1.0 kg/ha,13 cm
same,Shoot length,[12]; 2.0 kg/ha,13 cm
same,Shoot length,[3]; 1.0 kg/ha,20 cm
same,Shoot length,[3]; 2.0 kg/ha,19 cm
same,inhibition at 1000 g/ha,[13]; [23],30%
same,inhibition at 1000 g/ha,[13]; [24],20%
same,inhibition at 2000 g/ha,[13]; [25],30%
same,inhibition at 2000 g/ha,[13]; [26],20%
same,inhibition at 1000 g/ha,[14],0%
same,inhibition at 2000 g/ha,[14],0%
same,inhibition at 1000 g/ha,[15],0%
same,inhibition at 2000 g/ha,[15],0%
same,inhibition at 1000 g/ha,[16],0%
same,inhibition at 2000 g/ha,[16],0%
same,inhibition at 500 g/ha,[17]; 0.5 kg/ha,0%
same,inhibition at 1000 g/ha,[17]; 1.0 kg/ha,10%
same,inhibition at 2000 g/ha,[17]; 2.0 kg/ha,10%
same,inhibition at 4000 g/ha,[17]; 4.0 kg/ha,10%
same,inhibition at 1000 g/ha,[18],0%
same,inhibition at 2000 g/ha,[18],0%
same,inhibition at 1000 g/ha,[19]; [23],10%
same,inhibition at 1000 g/ha,[19]; [24],20%
same,inhibition at 2000 g/ha,[19]; [25],10%
same,inhibition at 2000 g/ha,[19]; [26],20%
same,inhibition at 1000 g/ha,[20],0%
same,inhibition at 2000 g/ha,[20],0%
same,inhibition at 500 g/ha,[21],0%
same,inhibition at 1000 g/ha,[21],0%
same,inhibition at 2000 g/ha,[21],0%
same,inhibition at 4000 g/ha,[21],0%
same,inhibition at 500 g/ha,[22],0%
same,inhibition at 1000 g/ha,[22],0%
same,inhibition at 2000 g/ha,[22],0%
same,inhibition at 4000 g/ha,[22],10%
